Patent US20220008368A1, “METHODS AND COMPOSITIONS RELATED TO TARGETING FFAR2 AND ILC3 POPULATIONS FOR THE TREATMENT OF A GASTROINTESTINAL DISEASE” (PRESIDENT AND FELLOWS OF HARVARD COLLEGE, priority 2018, published 2022)
Like-named read-outs stand apart in the source and are kept apart here. *1 amine or outer side, *2 acyl side, *3 side chain or, on linkers, in order; H or OH if unused. Where a SMILES comes first, the peptide text is derived from it. Bridges are numbered along the chain shown (N, C = ends). [ ]: non-standard residue; d: D form. X1 = CC(=O)NC(C(=O)OC(C(C)C)C(N[*:1])C(=O)[*:2])C(O)C(C)C; PhLac = O=C(O)[CH](O)Cc1ccccc1; NMeT = CN[CH](C(=O)O)[CH](C)O; NMeA = CN[CH](C)C(=O)O; NMeDha = C=C(NC)C(=O)O

What was measured:
sorted colonic ILC3s [1] = test: Flow analysis of intracellular signaling (AKT, p38, ERK, STAT3 phosphorylation) in sorted colonic ILC3s from WT mice; type: cell-based, mouse
Procedure: For analysis of intracellular signaling in ILC3s (Ibiza et al., 2016), sorted colonic ILC3s were rested for 2 hours in RPMI at 37° C.
AKT and STAT3 inhibition. Sorted colonic ILC3s were rested for 2 hours in RPMI at 37° C. For analysis of STAT3 phosphorylation, cells were incubated with […] AKT inhibitor VIII (VIII, Sigma-Aldrich) (Ibiza et al., 2016) or vehicle as a control (DMSO) for 1h at 37° C. before stimulation with the Ffar2 agonist (10 μM/ml dissolved in water, pH 7.4). To determine Il22 expression levels, cells were incubated with 10 μM AKT inhibitor VIII, 10 μM STAT3 inhibitor VI (S3I, Sigma-Aldrich) (Ibiza et al., 2016) or vehicle during overnight stimulation with Ffar2 agonist at 37° C.

sorted colonic ILC3s [2] = test: Il22 mRNA expression in sorted colonic ILC3s (qRT-PCR); type: cell-based, mouse; details: for Il22 expression upon Ffar2 activation with the Ffar2 agonist: overnight with Ffar2 agonist, AKT inhibitor VIII 10 μM, STAT3 inhibitor 10 μM
Procedure: RNA isolation and real-time quantitative PCR (qRT-PCR). For analysis of sorted colonic immune cell populations including ILC subsets and colonic ILC3s, RNA was isolated using the RNeasy Micro Kit (Qiagen) or RNeasy Mini Kit (Qiagen) according to the manufacturer's protocol. For analysis of colonic epithelial cells or colon tissues, cells or tissues were homogenized directly into Qiazol (Qiagen), and RNA was isolated via chloroform extraction. The quantity and quality of RNA was determined using a NanoDrop (Thermo Scientific). […] Quantitative real-time PCR was carried out on cDNA with SYBR FAST Universal qPCR Master Mix (KAPA Biosystems). Reactions were run on a Stratagene Mx3005P machine (Agilent Technologies). The expression of individual genes was normalized to housekeeping gene β-actin expression on the base of the ΔΔCt algorithm. Some results are shown as a fold induction relative to expression levels in colonic epithelial cells as indicated. AKT and STAT3 inhibition.

colonic ILC3s [3] = test: Colonic RORγt+ ILC3s in germ-free WT mice fed Ffar2 agonist or sodium acetate; type: in vivo, mouse; details: Ffar2 agonist 700 μM or sodium acetate 150 mM in drinking water, 1-2 weeks
Procedure: GPR43 agonist. […] SCFA intervention. […] WT mice received sodium chloride (150 mM). […] Flow cytometry.

sorted colonic ILC3s [4] = test: In vitro BrdU incorporation in sorted colonic ILC3s; type: cell-based, mouse; details: acetate 10 mM or propionate 10 mM with BrdU 10 μM overnight
colonic ILC3s [5] = details: WT mice, drinking water 2 weeks; acetate 150 mM, propionate 150 mM, butyrate 100 mM; control sodium chloride
Procedure: SCFA intervention. […] WT mice received sodium chloride (150 mM). […] Drinking water solutions were freshly prepared and changed every 5 days.
Isolation of colonic epithelial cells and immune cells. Colons were dissected and fat and blood vessels were removed. Colons were cut open longitudinally and washed with PBS to remove feces and debris, then incubated in PBS containing 5 mM EDTA, 0.145 mg/ml Dithiothreitol (Sigma-Aldrich), 3% FBS and 1% penicillin/streptomycin (P/S) for 15 min at 37° C. for 2 cycles. After being vortexed for 15s, the dissociated cells were collected as colonic epithelial cells. For the isolation of lamina propria immune cells, the remaining colonic tissues were washed twice in PBS, cut into 1 mm in length, and digested in RPMI 1640 containing 0.5 mg/ml collagenase D (Roche), 0.01 mg/ml DNase I (Roche), and 0.5 mg/ml Dispase (Stem Cell Technologies) for 30 min at 37° C. on a shaking platform. The digested tissues were passed through 70 μm strainers after being vigorously vortexed for 15s. Then, colonic immune cells were collected and resuspended in PBS with 1% fetal bovine serum and 1% penicillin-streptomycin solution (Corning) for flow cytometry analysis, FACSAria sorting or RNA extraction.
Flow cytometry. Single-cell suspensions were stained with a combination of fluorescently conjugated monoclonal antibodies. CD16/32 antibody (93; BioLegend) was used to block the non-specific binding to Fc receptors before surface staining. Cells were stained with Fixable yellow dead cell stain kit (Invitrogen) for the detection of live/dead cells before staining of the cell surface. All antibodies were purchased from BioLegend unless otherwise specified. For surface marker staining, antibodies to the following mouse proteins were used: CD45 (30-F11), CD90.2 (53-2.1), lineage markers (17A2/RB6-8C5/RA3-6B2/Ter-119/M1/70), CCR6 (29-21.17), NKp46 (29A1.4), CD11b (M1/70), CD11c (N418), Gr-1 (RB6-8C5), MHC class II (M5/114.15.2), NK1.1 (PK136), KLRG1 (2F1), CD3c (145-2C11), CD4 (RM4.5). […]

Ffar2 = target: T1, Ffar2 (Homo sapiens, UniProt O15552); details: cited from earlier work; for agonism of Ffar2 among SCFAs: compared among acetate, propionate and butyrate
T1 sequence (O15552 1-330): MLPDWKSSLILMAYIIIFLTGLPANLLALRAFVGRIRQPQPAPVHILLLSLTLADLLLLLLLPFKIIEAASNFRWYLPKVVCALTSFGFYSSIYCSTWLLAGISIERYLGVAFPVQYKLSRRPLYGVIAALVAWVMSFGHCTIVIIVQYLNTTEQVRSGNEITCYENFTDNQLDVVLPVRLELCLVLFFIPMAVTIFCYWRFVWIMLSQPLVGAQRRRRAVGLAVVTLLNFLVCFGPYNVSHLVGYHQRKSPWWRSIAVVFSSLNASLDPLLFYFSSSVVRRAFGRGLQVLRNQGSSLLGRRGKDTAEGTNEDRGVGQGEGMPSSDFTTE

Peyer's patch ILC3s = details: cited from earlier work
C57BL/6 Rag2−/− mice = test: T cell-transfer colitis model; type: in vivo, mouse; details: Ffar2 agonist or sodium propionate for 6 weeks
Procedure: GPR43 agonist. […] SCFA intervention. […] WT mice received sodium chloride (150 mM). […] Histology. Colons were cleaned with PBS prior to fixation in 4% PFA and then processed by routine paraffin embedding, sectioning and H&E staining. Colitis scores were determined by a pathologist (J. N. G.), who was blinded to the experimental parameters. Each of the four histologic parameters was scored as absent (0), mild (1), moderate (2), or severe (3): mononuclear cell infiltration, polymorphonuclear cell infiltration, epithelial hyperplasia, and epithelial injury. The scores for the parameters were summed to generate the cumulative histologic colitis score as previously described^60, 61. For the DSS-induced model, cumulative histologic scores were also quantified as to the percentage involvement by the disease process: […] (3) 30-50%; (4) >50% and presented as histologic colitis scores^62 as follows: (cumulative score*involvement)+cumulative score. T cell-transfer colitis model. Splenic T cells (CD3^+CD4^+CD25^-CD45RB^hi) were sorted from C57BL/6J WT mice and injected i.p. into C57BL/6J Rag2^-/- mice (5×10^5 cells/mouse). […] Mice were monitored weekly for weight loss and morbidity for 6-8 weeks as per the protocol's experimental endpoint guidelines and sacrificed at the terminal time point of 6 weeks post injection of splenic […].

[6] = WT ILC3s, propionate 10 mM, 1 h

O=c1[nH]c2ccccc2n1C1CCN(Cc2ccc(-c3nc4cc5[nH]cnc5cc4nc3-c3ccccc3)cc2)CC1 [AKT inhibitor (VIII)]
STAT3 activation upon Ffar2 activation with the Ffar2 agonist (sorted colonic ILC3s [1]; AKT inhibitor VIII 1 h before stimulation with Ffar2 agonist): impaired | Il22 expression upon Ffar2 activation with the Ffar2 agonist (sorted colonic ILC3s [2]; PTX 500 ng/mL, YM-254890 1 mM): decreased 11-22, but to a lesser extent

Cc1ccc(S(=O)(=O)OCC(=O)Nc2ccc(C(=O)O)c(O)c2)cc1 [STAT3 inhibitor (S31)]
Il22 expression upon Ffar2 activation with the Ffar2 agonist (sorted colonic ILC3s [2]; PTX 500 ng/mL, YM-254890 1 mM): impaired | Il22 expression upon Ffar2 activation with the Ffar2 agonist (sorted colonic ILC3s [2]; PTX 500 ng/mL, YM-254890 1 mM, listed as STAT3 inhibitor): decreased

C=C1C(=O)NC(C)C(=O)N(C)C(C)C(=O)NC(C(OC(=O)C(NC(C)=O)C(O)C(C)C)C(C)C)C(=O)N(C)C(C(C)OC)C(=O)OC(C)C(NC(C)=O)C(=O)OC(Cc2ccccc2)C(=O)N1C (stereo not drawn) [YM-254890] (Ac-T[PhLac][NMeDha]A[NMeA][X1][NMeT](Me); ester 1-C; configuration not given here)
Il22 expression upon Ffar2 activation with the Ffar2 agonist (sorted colonic ILC3s [2]; PTX 500 ng/mL, YM-254890 1 mM): abolished | Il22 expression upon activation with propionate (sorted colonic ILC3s [2]; propionate 10 mM overnight, PTX 500 ng/mL, YM-254890 1 mM, ERK inhibitor 10 μM): decreased IL22 transcripts to a lesser extent

CC(=O)[O-].[Na+] [sodium acetate]
colonic ILC3 numbers (colonic ILC3s [3]): increased | Il22 mRNA expression in sorted ILC3s cultured with ligand (sorted colonic ILC3s [2]): did not alter | percentage of BrdU+ ILC3s (sorted colonic ILC3s [4]): increased | colonic ILC3 frequency and number (colonic ILC3s [5]): increased | agonism of Ffar2 among SCFAs (Ffar2): far more potent activators of Ffar2

CCCC(=O)[O-].[Na+] [sodium butyrate]
colonic ILC3 frequency and number (colonic ILC3s [5]): did not change | effect on Peyer's patch ILC3s (Peyer's patch ILC3s): suppress

CCC(=O)[O-].[Na+] [sodium propionate]
colitis (histologic colitis score) (C57BL/6 Rag2−/− mice): ameliorated colitis similar to the effect of sodium propionate | phosphorylation of AKT, p38, ERK and STAT3 (sorted colonic ILC3s [1]; WT ILC3s, propionate 10 mM, 30 min): did not induce | pSTAT3+ ILC3s (sorted colonic ILC3s [1]; [6]): did increase | share of ILC3s that were pSTAT3+ (sorted colonic ILC3s [1]; [6]): 1%-1.5% | percentage of pERK+ ILC3s (sorted colonic ILC3s [1]; WT ILC3s, propionate 10 mM, 1 h compared with shorter time): comparable | pERK level (sorted colonic ILC3s [1]; WT ILC3s, propionate 10 mM, 1 h versus 30 min): did induce a higher pERK | Il22 mRNA expression in sorted ILC3s cultured with ligand (sorted colonic ILC3s [2]; acetate 10 mM, propionate 10 mM or Ffar2 agonist 10 mM): to a lesser extent, propionate increased | percentage of BrdU+ ILC3s (sorted colonic ILC3s [4]): did not | colonic ILC3 frequency and number (colonic ILC3s [5]): increased | potency for Ffar2 compared with the synthetic Ffar2 agonist (Ffar2): lower potency | agonism of Ffar2 among SCFAs (Ffar2): far more potent activators of Ffar2
